Source: patent US20260109725A1, “MACROLIDE SENOLYTIC COMPOUNDS” (LUNELLA BIOTECH, INC., priority 2022, published 2026)

Tests used:
Format in all cases: cell-based, human
[1] = system: MRC-5 cells treated with BrdU; experiment: xCELLigence assay, BrdU-treated MRC-5 cells; conditions: 50 μM, 5 days after 8 days BrdU, compared to the control
Source text: (§1) Senescent cells undergo the so-called senescence-associated secretory phenotype (SASP), which involves dramatic increases in the synthesis and secretion of proteins. The xCELLigence assay system was used to assess whether protein measurement assays under-estimate the senolytic activity of tested compounds. […] The real-time xCELLigence assay system thus compliments the more static SRB assay, and offers a more direct visualization of the potential senolytic effects of compounds during drug screening.
(§2) The xCELLigence assay was used to confirm senolytic activity for Compound [I]. MRC-5 fibroblasts were used for the assay. […] The data is expressed as the final cell index, the average±the standard error of mean, for the control cells, control cells treated with Compound [I], BrdU-treated control cells, and BrdU-treated fibroblasts subjected to Compound [I] at 50 μM, respectively. The senescent MRC-5 cells were pretreated with BrdU for 8 days to induce senescence, before exposure to Compound [I] for another 5 days. Compared to the control, Compound [I] treatment had no effect on the viability of normal fibroblasts, but killed over 90% of the BrdU-treated fibroblasts.
(§3) xCELLigence Assay System: xCELLigence RTCA System (ACEA Biosciences Inc.). […] This approach allows the quantification of the onset and kinetics of the cellular response. […]

MCF-7 cells = experiment: mammosphere formation assay (3D anchorage independent growth)
Procedure: The compounds disclosed herein may also be used as therapeutic agent to selectively eradicate CSCs for treating and/or preventing tumor recurrence and/or metastasis. […] This assay measures the amount of residual protein that adheres to tissue culture dishes and is a surrogate marker of cell viability.
3D Anchorage Independent Growth Assay: This assay is also referred to as the mammosphere formation assay. A single-cell suspension was prepared using enzymatic, and manual disaggregation (25-g needle). Then, cells were plated at a density of 500 cells/cm^2 in mammosphere medium (DMEM-F12+1X B-27 Plus Supplement+20 ng/ml EGF+Pen/Strep) under non-adherent conditions, in culture dishes pre-coated with (2-hydroxyethylmethacrylate) (poly-HEMA, Sigma Aldrich Inc.), called “mammosphere plates.” Cells were grown for 5 days and maintained in a humidified incubator at 37° C. After 5 days of culture, 3D-mammospheres >50 μm were counted using an eye piece (“graticule”), and the percentage of cells plated which formed spheres was calculated and is referred to as percent mammosphere formation, and was normalized to one (1=100% MFE). 3D mammosphere formation efficiency (MFE) was analyzed in both the ATP-low and ATP-high sub-populations of cells. All 3D mammosphere experiments were performed in triplicate, at least 3 times independently.

normal MRC-5 cells = experiment: Images of MRC-5 fibroblasts without BrdU pre-treatment; conditions: 50 μM
Procedure: (§4) FIGS. 3A and 3B are images of MRC-5 fibroblasts without and with BrdU pre-treatment, respectively, treated with Compound [I] at a concentration of 50 μM. […] The scale bar in the upper-right of FIGS. 3B and 3C represents 20 μm.
(§5) BrdU Assay: Cells were plated into 24-well plates. Next day, half of the plate was treated with 100 μM of BrdU while control wells were treated with vehicle only (DMSO) and incubated for 8 days at 37° C. in a 5% CO2 humidified atmosphere. After 8 days of BrdU treatment cells were treated with various test compounds or drugs (e.g., azithromycin, roxithromycin, telithromycin, erythromycin, etc.) for another 3-5 days. BrdU or vehicle treatments were continued during the drug treatments as well.

[2] = system: control MRC-5 cells (normal lung fibroblasts); experiment: SRB assay, control (normal) MRC-5 cells; conditions: 10 μM
Procedure: (§6) For example, in one assay bromodeoxyuridine (5-bromo-2′-deoxyuridine), also known as BrdU, was used to induce senescence in a cell population. BrdU is an analog of the nucleoside thymidine commonly used to identify proliferating cells. BrdU induces controlled DNA damage, and drives cells towards senescence with high efficiency. In the BrdU assay, normal fibroblasts are subjected to prolonged culture (8-days) in the presence of BrdU at 100 μM to induce controlled DNA-damage and senescence. […] Senolytic activity was assessed using the sulforhodamine B assay, also known in the art as the SRB assay. This assay measures the amount of protein remaining attached to the tissue-culture dishes, and is a surrogate marker for cell viability.
(§7) FIG. 1 compares SRB assay results for different concentrations of Azithromycin (100 µM and 50 μM) and Compound [I] (100 μM and 50 μM) of the present approach, on both control MRC-5 cells and MRC-5 cells treated with BrdU. […] (labelled as “Azi-Gal” in FIG. 1) for another 5 days. After that, the SRB assay was performed to determine the effects of the drug on cell viability, using normal MRC-5 cells as the control. […] However, at 50 μM Azithromycin had no effect on either the control cells or senescent cells.
as §5
(§8) Sulphorhodamine B assay: After the incubation of the plates cell viability was measured by Sulphorhodamine B assay (SRB). The assay is based on the measurement of cellular protein contents. Cells were fixed with 10% Trichloroacetic acid (TCA) for 1 hour at […], and were dried overnight at room temperature. Then, plates were incubated with SRB for 30 min, washed twice with 1% acetic acid and air dried for at least 1 h. Finally, the protein-bound dye was dissolved in a 10 mM Tris, pH 8.8, solution and read using a plate reader at 540-nm.

[3] = system: MRC-5 cells treated with BrdU (senescent fibroblasts); experiment: SRB assay, BrdU-treated (senescent) MRC-5 cells
Procedure: as §6, §7, §5, §8

control MRC-5 cells = experiment: xCELLigence assay, control MRC-5 cells; conditions: 50 μM, 5 days
Source text: as §1, §2, §3

senescent MRC-5 cells = experiment: Images of MRC-5 fibroblasts with BrdU pre-treatment; conditions: 50 μM
Procedure: as §4, §5

CC[C@H]1OC(=O)[C@H](C)[C@@H](O[C@@H]2C[C@@](C)(OC)[C@@H](O)[C@H](C)O2)[C@H](C)[C@@H](O[C@@H]2O[C@H](C)C[C@H](N(C)C)[C@H]2OC(=O)OCc2ccc(O[C@@H]3O[C@H](COC(C)=O)[C@H](OC(C)=O)[C@H](OC(C)=O)[C@H]3OC(C)=O)c([N+](=O)[O-])c2)[C@](C)(O)C[C@@H](C)CN(C)[C@H](C)[C@@H](O)[C@]1(C)O [Compound [I], [(2R,3S,4S,5R,6S)-3,4,5-triacetoxy-6-[4-[[(2S,3R,4S,6R)-4-(dimethylamino)-2-[[(2R,3S,4R,5R,8R,10R,11R,12S,13S,14R)-2-ethyl-3,4,10-trihydroxy-13-[(2S,4R,5S,6S)-5-hydroxy-4-methoxy-4,6-dimethyl-tetrahydropyran-2-yl]oxy-3,5,6,8,10,12,14-heptamethyl-15-oxo-1-oxa-6-azacyclopentadec-11-yl]oxy]-6-methyl-tetrahydropyran-3-yl]oxycarbonyloxymethyl]-2-nitro-phenoxy]tetrahydropyran-2-yl]methyl acetate]
BrdU-treated fibroblasts killed (xCELLigence final cell index) [1]: over 90% | inhibition of mammosphere formation (MCF-7 cells; 100 μM): nearly complete inhibition | IC50 (MCF-7 cells; Homo sapiens, MCF7): 60 µM | effect on normal MRC-5 cells (images) (normal MRC-5 cells): little effect | effect on control cells (SRB) [2]: effective | effect on senescent cells (SRB) ([3]; 10 μM): effective | selectivity towards senescent MRC-5 fibroblasts (SRB) ([3]; 50 μM, senescent vs control MRC-5): exceptional selectivity | effect on viability of normal fibroblasts (xCELLigence final cell index) (control MRC-5 cells): no effect | effect on senescent MRC-5 cells (images) (senescent MRC-5 cells): induced cell death
